In the supplement of paper PMC10307832:

Tests used:
Assay in all cases: relative viability (nuclei count vs DMSO), 5 days (fraction); higher = more cells survive
Cediranib + Foretinib = compound: COc1cc2c(Oc3ccc4[nH]c(C)cc4c3F)ncnc2cc1OCCCN1CCCC1 [Cediranib] + COc1cc2c(Oc3ccc(NC(=O)C4(C(=O)Nc5ccc(F)cc5)CC4)cc3F)ccnc2cc1OCCCN1CCOCC1 [Foretinib] (partner 0.25 µM)
Method in brief: (§1)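 Five library-drug doses in √10 steps were combined with a fixed anchor-drug dose, or a single drug was given alone, by pin tool to lung cancer cell lines in 1536-well plates the day after seeding. Nuclei were stained and counted after 5 days. Relative viability is the nuclei count in treated wells over that in vehicle wells, taken as the median of duplicate plates.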

Cediranib + Pictilisib = compound: COc1cc2c(Oc3ccc4[nH]c(C)cc4c3F)ncnc2cc1OCCCN1CCCC1 [Cediranib] + CS(=O)(=O)N1CCN(Cc2cc3nc(-c4cccc5[nH]ncc45)nc(N4CCOCC4)c3s2)CC1 [Pictilisib] (partner 1 µM)
Method in brief: as §1

Decitabine + Luminespib = compound: Nc1ncn([C@H]2C[C@H](O)[C@@H](CO)O2)c(=O)n1 [Decitabine] + CCNC(=O)c1noc(-c2cc(C(C)C)c(O)cc2O)c1-c1ccc(CN2CCOCC2)cc1 [Luminespib] (partner 0.01 µM)
Method in brief: as §1

[1] = compound: O=C(C[C@H]1NCCC[C@@H]1O)Cn1cnc2cc(Br)c(Cl)cc2c1=O (racemic) [Halofuginone] + CS(=O)(=O)N1CCN(Cc2cc3nc(-c4cccc5[nH]ncc45)nc(N4CCOCC4)c3s2)CC1 [Pictilisib] (partner 1 µM)
Method in brief: as §1

Cell Line | relative viability (Cediranib + Foretinib; first compound 0.04 µM) | relative viability (Cediranib + Foretinib; first compound 0.1265 µM) | relative viability (Cediranib + Foretinib; first compound 0.4 µM) | relative viability (Cediranib + Foretinib; first compound 1.265 µM) | relative viability (Cediranib + Foretinib; first compound 4 µM) | relative viability (Cediranib + Pictilisib; first compound 0.04 µM) | relative viability (Cediranib + Pictilisib; first compound 0.1265 µM) | relative viability (Cediranib + Pictilisib; first compound 0.4 µM) | relative viability (Cediranib + Pictilisib; first compound 1.265 µM) | relative viability (Cediranib + Pictilisib; first compound 4 µM) | relative viability (Decitabine + Luminespib; first compound 0.04 µM) | relative viability (Decitabine + Luminespib; first compound 0.1265 µM) | relative viability (Decitabine + Luminespib; first compound 0.4 µM) | relative viability (Decitabine + Luminespib; first compound 1.265 µM) | relative viability (Decitabine + Luminespib; first compound 4 µM) | relative viability ([1]; first compound 0.001 µM) | relative viability ([1]; first compound 0.003162 µM) | relative viability ([1]; first compound 0.01 µM) | relative viability ([1]; first compound 0.03162 µM) | relative viability ([1]; first compound 0.1 µM)
PC-3 [JPC-3] | 1.1 | 1.1 | 0.98 | 1.05 | 1.08 | 0.659 | 0.905 | 0.708 | 0.671 | 0.768 | 0.43 | 0.708 | 0.454 | 0.408 | 0.488 | 0.703 | 0.78 | 0.699 | 0.772 | 0.769
HCC-44 |  |  |  |  |  | 0.589 |  | 0.552 | 0.669 | 0.714 |  | 0.848 | 0.52 | 0.618 | 0.471 | 0.545 | 0.605 | 0.592 | 0.67 | 0.399
NCI-H2405 | 1.1 | 1.13 | 1.03 | 1.1 | 1.02 | 0.457 | 0.708 | 0.416 | 0.305 | 0.415 | 0.798 | 0.654 | 0.59 | 0.431 | 0.445 | 0.522 | 0.504 | 0.512 | 0.478 | 0.421
LXF-289 | 1.02 | 0.822 | 0.912 | 0.982 | 0.936 | 0.815 | 0.783 | 0.729 | 0.779 | 0.819 | 0.418 | 0.313 | 0.261 | 0.222 | 0.196 | 0.748 | 0.859 | 0.795 | 0.813 | 0.495
LOU-NH91 | 0.903 | 1.12 | 0.859 | 0.961 | 0.829 | 0.534 | 0.473 | 0.494 | 0.479 | 0.495 | 0.323 | 0.344 | 0.358 | 0.299 | 0.35 | 0.574 | 0.51 | 0.503 | 0.52 | 0.514
A549 | 0.903 | 1.07 | 0.858 | 0.975 | 0.899 | 0.538 | 0.628 | 0.485 | 0.477 | 0.532 |  |  |  |  |  | 0.569 | 0.547 | 0.53 | 0.347 | 0.0767
H3255 | 0.788 |  | 0.821 | 0.732 | 0.932 | 0.533 | 0.525 | 0.409 | 0.494 | 0.446 |  | 0.765 | 0.64 | 0.657 | 0.601 | 0.472 | 0.482 | 0.437 | 0.394 | 0.447
NCI-H1395 | 1.1 | 1.01 | 0.911 | 0.976 | 1.13 | 0.58 |  | 0.593 | 0.557 | 0.591 | 0.626 | 0.661 | 0.568 | 0.432 | 0.438 | 0.625 | 0.674 | 0.86 | 0.578 | 0.54
LC-2-ad | 1.12 | 0.581 | 0.883 | 1.04 | 0.891 | 0.655 | 0.567 | 0.411 | 0.395 | 0.201 | 0.839 | 0.958 | 0.782 | 0.492 | 0.558 | 0.66 | 0.551 | 0.492 | 0.455 | 0.269
NCI-H838 | 1.02 | 1.02 | 0.994 | 1.01 | 1.05 | 0.542 | 0.46 | 0.395 | 0.275 | 0.558 | 0.213 | 0.188 | 0.296 | 0.191 | 0.165 | 0.478 | 0.481 | 0.42 | 0.37 | 0.134
Calu-6 | 0.921 | 0.944 | 0.857 | 0.863 | 0.911 | 0.97 | 0.985 | 0.931 | 0.824 | 1.13 |  |  |  |  |  | 0.968 | 0.873 | 0.849 | 0.327 | 0.11
LCLC-97TM1 | 0.969 | 0.919 | 0.946 | 0.921 | 0.967 | 0.174 |  | 0.168 | 0.122 | 0.248 | 0.403 | 0.48 | 0.322 | 0.143 | 0.159 | 0.289 | 0.216 | 0.179 | 0.201 | 0.14
HCC-15 | 1.01 |  | 0.946 | 1.07 | 1.09 | 0.602 |  | 0.699 | 0.686 | 0.987 | 0.301 | 0.38 | 0.267 | 0.191 | 0.195 | 0.721 | 0.852 | 0.7 | 0.857 | 0.673
CAL-12T | 1.1 | 1.02 | 1.09 | 1.12 | 1.2 | 0.431 |  | 0.438 | 0.319 | 0.501 | 0.612 | 0.359 |  | 0.298 | 0.249 | 0.691 | 0.277 |  | 0.468 | 0.323
NCI-H727 |  | 1.05 | 0.868 | 0.84 | 0.93 | 0.515 | 0.169 | 0.289 | 0.325 | 0.3 | 0.499 | 0.289 | 0.339 | 0.288 | 0.407 | 0.428 | 0.444 | 0.359 | 0.421 | 0.194
ABC-1 | 1.17 | 1.2 | 1.04 |  | 0.879 | 0.786 | 0.566 | 0.69 |  | 0.737 |  | 0.807 | 0.521 | 0.345 | 0.331 | 0.415 | 0.922 | 0.836 | 0.728 | 0.51
NCI-H2023 | 0.775 | 0.922 | 0.924 | 0.878 | 1.01 | 0.269 | 0.101 | 0.226 | 0.193 | 0.236 | 0.317 | 0.386 | 0.153 | 0.138 | 0.14 | 0.268 | 0.232 | 0.228 | 0.141 | 0.0681
